Laboratory results published in patent US6465429B1, “Antimicrobial cationic peptides” (priority 1995, dated 2002).
Ends that are not written are not given here.

Tests used:
[1] = tested on: Red Blood Cells; assay: Red Blood Cell lysis; format: cell-based
[2] = α helical content by CD spectra; format: physicochemical
Experimental: The α helical content of the peptides were measured in buffer, liposomes and 20% Hexafluoroisopropanol (HFPIP). The liposomes constituted of POPC alone or POPC PC and 30% POPG (Table 7).

[3] = Dansyl polymyxin displacement assay; format: binding; conditions: Dansyl polymyxin displacement from LPS
Excerpt: In addition, the peptides of SEQ ID NO: 5-8 also bound effectively to LPS with high affinity based on Dansyl polymyxin displacement assays (Table 5).

[4] = tested on: E. coli ML 35; assay: Inner membrane permeabilization (β-galactosidase, ONPG); format: cell-based; conditions: for Lag Time / Rate of Hydrolysis: inner membrane permeabilization; for Lag Time: E. coli ML 35; for Rate of Hydrolysis: E. coli ML 35, ONPG
Experimental: Inner membrane permeability was determined by measurement in E. coli ML 35 of β-galactosidase activity using ONPG as a substrate. Normally ONPG cannot pass across the cytoplasmic membrane to permit hydrolysis by the cytoplasmic enzyme β-galactosidase. However, cationic peptides, by permeabilizing the inner membrane, unmasks this enzyme leading to color development as ONP is released. […] Addition of citrate increased the lag time before the peptides were able to permeabilize the membranes. When the experiments were executed in cation adjusted media (CAMHB), the lag time was increased up to 30 minutes.

[5] = tested on: A. calcoaceticus; assay: Synergy of peptide and antibiotic, MIC and FIC (checkerboard); format: cell-based; conditions: Acinetobacter calcoaceticus, agent alone
Experimental: (§1) FICs are performed by checkerboard titrations of peptides in one dimension of a microtiter plate, and of antibiotics in the other dimension, for example. The FIC is calculated by looking at the impact of one antibiotic on the MIC of the other and vice versa. […] Preferably, an FIC of less than 0.5 is obtained for synergism. As used herein, FIC can be determined as follows: [formula]
(§2) Synergism is identified as an FIC of about ≦0.5.

[6] = tested on: X. maltophila; assay: as above; format: cell-based; conditions: agent alone
Experimental: as §1, §2

[7] = tested on: E. cloacae; assay: as above; format: cell-based; conditions: Enterobacter cloacae, agent alone
Experimental: as §1, §2

[8] = tested on: P. aeruginosa; assay: microbe, parasite or virus in culture; conditions: agent alone
Experimental: as §1, §2

[9] = A. calcoaceticus isolate 1, strain ATCC 23055
[10] = A. calcoaceticus isolate 3, strain 27
[11] = A. calcoaceticus isolate 4, strain 28
[12] = A. calcoaceticus isolate 5, strain 8220
[13] = A. calcoaceticus isolate 6, strain 8221
[14] = A. calcoaceticus isolate 7, strain 8222
[15] = A. calcoaceticus isolate 9, strain 8224
[16] = A. calcoaceticus isolate 10, strain 8225
[17] = A. calcoaceticus isolate 11, strain 8226
[18] = X. maltophila isolate 37, strain 3095
[19] = X. maltophila isolate 38, strain 7901
[20] = X. maltophila isolate 39, strain B3110.1
[21] = X. maltophila isolate 40, strain R1302-1
[22] = X. maltophila isolate 41, strain R4230
[23] = X. maltophila isolate 42, strain TF29-1
[24] = X. maltophila isolate 43, strain TF29-2
[25] = X. maltophila isolate 44, strain W6896-2
[26] = E. cloacae isolate 12, strain ATCC 13047
[27] = E. cloacae isolate 13, strain 37-1
[28] = E. cloacae isolate 14, strain 938-2
[29] = E. cloacae isolate 15, strain B5546
[30] = E. cloacae isolate 16, strain R4148
[31] = E. cloacae isolate 17, strain R4148-2
[32] = E. cloacae isolate 18, strain 3077
[33] = E. cloacae isolate 19, strain 3356
[34] = E. cloacae isolate 20, strain 14269
[35] = E. cloacae isolate 21, strain 14661
[36] = E. cloacae isolate 22, strain 18801
[37] = Pseudomonas aeruginosa, P. aeruginosa isolate 24, strain 34
[38] = Pseudomonas aeruginosa, P. aeruginosa isolate 25, strain 923-1
[39] = Pseudomonas aeruginosa, P. aeruginosa isolate 26, strain 3101
[40] = Pseudomonas aeruginosa, P. aeruginosa isolate 27, strain 14644
[41] = Pseudomonas aeruginosa, P. aeruginosa isolate 28, strain 15036
[42] = Pseudomonas aeruginosa, P. aeruginosa isolate 29, strain 15545
[43] = Pseudomonas aeruginosa, P. aeruginosa isolate 30, strain B3999-1
[44] = Pseudomonas aeruginosa, P. aeruginosa isolate 31, strain U7688-1
[45] = Pseudomonas aeruginosa, P. aeruginosa isolate 32, strain W2897-1

Compound: KWKSFIKNLEKVLKPGGLLSNIVTSL [compound 490]
- RBC Lysis [1]: >55 µg/mL
- % α helicity ([2]; 20% HFIP): 41%
- % α helicity ([2]; Buffer): 0%
- % α helicity ([2]; POPC Liposomes): 29%
- % α helicity ([2]; POPC/POPG Liposomes): 27%
- Imax [3]: 40%
- Lag Time [4]: 156 s
- Rate of Hydrolysis [4]: 0.081 ΔAU min^−1

Compound: CCN1CCN(C(=O)N[C@@H](C(=O)N[C@@H]2C(=O)N3[C@@H]2SC(C)(C)[C@@H]3C(=O)O)c2ccccc2)C(=O)C1=O [Piperacillin]
- MIC [5, 9]: 8 µg/mL
- MIC [5, 10]: 16 µg/mL
- MIC [5, 11]: 4 µg/mL
- MIC [5, 12]: 16 µg/mL
- MIC [5, 13]: 16 µg/mL
- MIC [5, 14]: 32 µg/mL
- MIC [5, 15]: 256 µg/mL
- MIC [5, 16]: 32 µg/mL
- MIC [5, 17]: 32 µg/mL
- MIC ([5]; A. calcoaceticus isolate 2, strain 23): 1020 µg/mL
- MIC ([6]; X. maltophila isolate 34, strain ATCC 13637): 1020 µg/mL
- MIC ([6]; X. maltophila isolate 36, strain 16): 1020 µg/mL
- MIC [6, 18]: 512 µg/mL
- MIC [6, 19]: 512 µg/mL
- MIC [6, 20]: 512 µg/mL
- MIC [6, 21]: 512 µg/mL
- MIC [6, 22]: 1020 µg/mL
- MIC [6, 23]: 1020 µg/mL
- MIC [6, 24]: 1020 µg/mL
- MIC [6, 25]: 1020 µg/mL
- MIC ([6]; X. maltophila isolate 45, strain W11291): 512 µg/mL
- MIC [7, 26]: 8 µg/mL
- MIC [7, 27]: 4 µg/mL
- MIC [7, 28]: 8 µg/mL
- MIC [7, 29]: 8 µg/mL
- MIC [7, 30]: 1020 µg/mL
- MIC [7, 31]: 1020 µg/mL
- MIC [7, 32]: 8 µg/mL
- MIC [7, 33]: 64 µg/mL
- MIC [7, 34]: 1020 µg/mL
- MIC [7, 35]: 16 µg/mL
- MIC [7, 36]: 4 µg/mL
- MIC [8, 37]: 1020 µg/mL
- MIC [8, 38]: 64 µg/mL
- MIC [8, 39]: 64 µg/mL
- MIC [8, 40]: 512 µg/mL
- MIC [8, 41]: 1020 µg/mL
- MIC [8, 42]: 512 µg/mL
- MIC [8, 43]: 512 µg/mL
- MIC [8, 44]: 512 µg/mL
- MIC [8, 45]: 64 µg/mL

Compound: KWKSFIKNLEKVLKKGPILANLVSIV [compound 491]
- RBC Lysis [1]: >55 µg/mL
- % α helicity ([2]; 20% HFIP): 44%
- % α helicity ([2]; Buffer): 0%
- % α helicity ([2]; POPC Liposomes): 0%
- % α helicity ([2]; POPC/POPG Liposomes): 15%
- Imax [3]: 24%
- Lag Time [4]: 152 s
- Rate of Hydrolysis [4]: 0.14 ΔAU min^−1

Compound: KWKKFIKELQKVLAPGGLLSNIVTSL [compound 493]
- RBC Lysis [1]: >55 µg/mL
- % α helicity ([2]; 20% HFIP): 42%
- % α helicity ([2]; Buffer): 0%
- % α helicity ([2]; POPC Liposomes): 18%
- % α helicity ([2]; POPC/POPG Liposomes): 20%
- Imax [3]: 56%
- Lag Time [4]: 136 s
- Rate of Hydrolysis [4]: 0.14 ΔAU min^−1

Compound: H-KWKSFIKKLTSAAKKVVTTAKPLISS-OH [MBI 26]
- RBC Lysis [1]: >55 µg/mL
- effect of 5 mM Mg++ on inner membrane permeabilization ([4]; 4 ug peptide, +5 mM Mg): large inhibitory effect
- effect of 100 mM NaCl on inner membrane permeabilization ([4]; 4 ug peptide, +100 mM NaCl): little effect

Compound: NC[C@H]1O[C@H](O[C@H]2[C@H](O)[C@@H](O[C@H]3O[C@H](CO)[C@@H](O)[C@H](N)[C@H]3O)[C@H](N)C[C@@H]2N)[C@H](N)C[C@@H]1O [Tobramycin]
- MIC [5, 9]: 4 µg/mL
- MIC [5, 10]: 1 µg/mL
- MIC [5, 11]: 128 µg/mL
- MIC [5, 12]: 4 µg/mL
- MIC [5, 13]: 4 µg/mL
- MIC [5, 14]: 4 µg/mL
- MIC ([5]; A. calcoaceticus isolate 8, strain 8223): 4 µg/mL
- MIC [5, 15]: 4 µg/mL
- MIC [5, 16]: 4 µg/mL
- MIC [5, 17]: 4 µg/mL
- MIC ([6]; X. maltophila isolate 35, strain 6): 4 µg/mL
- MIC [6, 18]: 32 µg/mL
- MIC [6, 19]: 32 µg/mL
- MIC [6, 20]: 32 µg/mL
- MIC [6, 21]: 32 µg/mL
- MIC [6, 22]: 16 µg/mL
- MIC [6, 23]: 2 µg/mL
- MIC [6, 24]: 2 µg/mL
- MIC [6, 25]: 16 µg/mL
- MIC [7, 26]: 1 µg/mL
- MIC [7, 27]: 1 µg/mL
- MIC [7, 28]: 2 µg/mL
- MIC [7, 29]: 2 µg/mL
- MIC [7, 30]: 1 µg/mL
- MIC [7, 31]: 1 µg/mL
- MIC [7, 32]: 1 µg/mL
- MIC [7, 33]: 1 µg/mL
- MIC [7, 34]: 1 µg/mL
- MIC [7, 35]: 1 µg/mL
- MIC [7, 36]: 1 µg/mL
- MIC ([8]; Pseudomonas aeruginosa, P. aeruginosa isolate 23, strain ATCC 27853): 1 µg/mL
- MIC [8, 37]: 64 µg/mL
- MIC [8, 38]: 1 µg/mL
- MIC [8, 39]: 1 µg/mL
- MIC [8, 40]: 2 µg/mL
- MIC [8, 41]: 1 µg/mL
- MIC [8, 42]: 2 µg/mL
- MIC [8, 43]: 2 µg/mL
- MIC [8, 44]: 1 µg/mL
- MIC [8, 45]: 1 µg/mL
- MIC ([8]; Pseudomonas aeruginosa, P. aeruginosa isolate 33, strain W5483-2): 1 µg/mL
- MIC ([8]; Table 33, P. aeruginosa isolate 23, strain ATCC 27853): 1 μg · mL^1
- MIC ([8]; Table 33, P. aeruginosa isolate 24, strain 34): 64 μg · mL^1
- MIC ([8]; Table 33, P. aeruginosa isolate 25, strain 923-1): 1 μg · mL^1
- MIC ([8]; Table 33, P. aeruginosa isolate 26, strain 3101): 1 μg · mL^1
- MIC ([8]; Table 33, P. aeruginosa isolate 27, strain 14644): 1 μg · mL^1
- MIC ([8]; Table 33, P. aeruginosa isolate 28, strain 15036): 1 μg · mL^1
- MIC ([8]; Table 33, P. aeruginosa isolate 29, strain 15545): 2 μg · mL^1
- MIC ([8]; Table 33, P. aeruginosa isolate 30, strain B3999-1): 1 μg · mL^1
- MIC ([8]; Table 33, P. aeruginosa isolate 31, strain U7688-1): 2 μg · mL^1
- MIC ([8]; Table 33, P. aeruginosa isolate 32, strain W2897-1): 1 μg · mL^1
- MIC ([8]; Table 33, P. aeruginosa isolate 33, strain W5483-2): 2 μg · mL^1
